ChEMBL document CHEMBL1145923, “Synthesis and biological evaluation of 4-arylcoumarin analogues of combretastatins” (J Med Chem, 2003)

Test system: CCRF-CEM
Assay: Inhibitory activity against CEM human leukemia cell line
Assay type: functional, cell-based

IC50: > 50 µM
Compound: COc1cc2oc(=O)cc(-c3ccc4c(c3)OCO4)c2c(OC)c1OC
